Measured values taken from ChEMBL document CHEMBL2331317, “Synthesis and structure-activity relationships for 1-(4-(piperidin-1-ylsulfonyl)phenyl)pyrrolidin-2-ones as novel non-carboxylate inhibitors of the aldo-keto reductase enzyme AKR1C3” (Eur J Med Chem, 2013).
Numbering of substitutions follows the chain as printed. Calls of active or inactive are those of the source. The rule behind the calls is not given here.

Tests used:
[1] = molecular target: T1, Aldo-keto reductase family 1 member C3 (Homo sapiens, UniProt P42330); experiment: Inhibition of His-tagged human AKR1C3 expressed in Escherichia coli BL21 (DE3) assessed as inhibition of reduction of non-fluorescent ketone probe to fluorescent alcohol after 1 hr by competitive fluorescence assay
T1 sequence (P42330 whole entry): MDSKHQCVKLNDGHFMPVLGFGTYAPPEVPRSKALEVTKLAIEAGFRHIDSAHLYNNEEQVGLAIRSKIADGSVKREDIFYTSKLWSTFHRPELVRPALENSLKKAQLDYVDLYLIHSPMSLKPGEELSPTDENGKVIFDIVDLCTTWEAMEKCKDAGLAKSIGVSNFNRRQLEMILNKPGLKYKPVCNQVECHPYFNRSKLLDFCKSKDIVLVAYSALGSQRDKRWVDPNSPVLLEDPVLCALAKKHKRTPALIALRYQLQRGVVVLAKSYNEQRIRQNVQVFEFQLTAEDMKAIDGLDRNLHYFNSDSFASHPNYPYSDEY

[2] = molecular target: T2, Aldo-keto reductase family 1 member C2 (Homo sapiens, UniProt P52895); experiment: Inhibition of His-tagged human AKR1C2 expressed in Escherichia coli BL21 (DE3) assessed as inhibition of reduction of non-fluorescent ketone probe to fluorescent alcohol after 1 hr by competitive fluorescence assay
T2 sequence (P52895 whole entry): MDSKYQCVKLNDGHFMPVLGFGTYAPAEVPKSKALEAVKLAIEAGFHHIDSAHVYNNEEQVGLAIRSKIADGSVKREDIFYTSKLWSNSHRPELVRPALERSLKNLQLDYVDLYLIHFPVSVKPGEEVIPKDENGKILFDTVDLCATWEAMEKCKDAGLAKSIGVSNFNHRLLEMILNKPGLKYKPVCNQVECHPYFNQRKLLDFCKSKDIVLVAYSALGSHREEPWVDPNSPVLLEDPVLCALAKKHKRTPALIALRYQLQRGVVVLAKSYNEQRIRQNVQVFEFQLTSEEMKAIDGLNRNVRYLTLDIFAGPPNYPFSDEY

[3] = molecular target: T3, Aldo-keto reductase family 1 member C4 (Homo sapiens, UniProt P17516); experiment: Inhibition of His-tagged human AKR1C4 expressed in Escherichia coli BL21 (DE3) assessed as inhibition of reduction of non-fluorescent ketone probe to fluorescent alcohol after 1 hr by competitive fluorescence assay
T3 sequence (P17516 whole entry): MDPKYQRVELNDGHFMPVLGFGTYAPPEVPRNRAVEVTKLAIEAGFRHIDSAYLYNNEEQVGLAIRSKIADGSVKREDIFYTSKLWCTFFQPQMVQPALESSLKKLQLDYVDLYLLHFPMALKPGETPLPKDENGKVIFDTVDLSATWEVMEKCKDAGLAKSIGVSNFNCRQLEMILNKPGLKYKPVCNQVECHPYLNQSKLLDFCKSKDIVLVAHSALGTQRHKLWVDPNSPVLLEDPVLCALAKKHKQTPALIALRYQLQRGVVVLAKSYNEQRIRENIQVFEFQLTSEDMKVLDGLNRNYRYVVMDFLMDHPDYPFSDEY

[4] = molecular target: T1, Aldo-keto reductase family 1 member C3; experiment: Inhibition of recombinant AKR1C3 (unknown origin) overexpressed in human HCT116 cells assessed as inhibition of aerobic reduction of dinitrobenzamide PR-104A to its hydroxylamine metabolite by LC-MS/MS assay; type: cell-based, HCT-116
[5] = molecular target: T4, Aldo-keto reductase family 1 member C1 (Homo sapiens, UniProt Q04828); experiment: Inhibition of His-tagged human AKR1C1 expressed in Escherichia coli BL21 (DE3) assessed as inhibition of reduction of non-fluorescent ketone probe to fluorescent alcohol after 1 hr by competitive fluorescence assay
T4 sequence (Q04828 whole entry): T2 sequence (P52895 whole entry) with V38T, H47R, V54L, S87C, M151V, H170R, L172Q

[6] = molecular target: T3, Aldo-keto reductase family 1 member C4; experiment: Inhibition of AKR1C4 (unknown origin)
[7] = molecular target: T5, Prostaglandin G/H synthase 1 (Homo sapiens, UniProt P23219); experiment: Inhibition of COX1 (unknown origin)
T5 sequence (P23219 whole entry): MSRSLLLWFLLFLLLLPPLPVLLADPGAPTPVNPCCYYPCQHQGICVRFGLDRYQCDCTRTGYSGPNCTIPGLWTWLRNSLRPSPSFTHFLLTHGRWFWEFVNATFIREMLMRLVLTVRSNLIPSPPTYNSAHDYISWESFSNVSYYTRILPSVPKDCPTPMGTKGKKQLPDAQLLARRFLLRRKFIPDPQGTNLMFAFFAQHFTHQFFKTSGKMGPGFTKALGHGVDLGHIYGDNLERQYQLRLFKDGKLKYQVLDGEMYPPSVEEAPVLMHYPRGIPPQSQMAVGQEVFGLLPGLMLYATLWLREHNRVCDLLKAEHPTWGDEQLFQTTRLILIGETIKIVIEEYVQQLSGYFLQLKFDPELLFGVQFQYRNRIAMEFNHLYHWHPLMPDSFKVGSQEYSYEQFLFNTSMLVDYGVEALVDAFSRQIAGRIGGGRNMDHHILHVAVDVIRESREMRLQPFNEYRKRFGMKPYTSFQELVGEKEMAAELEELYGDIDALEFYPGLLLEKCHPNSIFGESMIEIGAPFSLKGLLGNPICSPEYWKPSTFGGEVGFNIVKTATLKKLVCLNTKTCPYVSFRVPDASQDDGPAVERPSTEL

[8] = molecular target: T4, Aldo-keto reductase family 1 member C1; experiment: Inhibition of AKR1C1 (unknown origin)
[9] = molecular target: T6, Prostaglandin G/H synthase 2 (Homo sapiens, UniProt P35354); experiment: Inhibition of COX2 (unknown origin)
T6 sequence (P35354 whole entry): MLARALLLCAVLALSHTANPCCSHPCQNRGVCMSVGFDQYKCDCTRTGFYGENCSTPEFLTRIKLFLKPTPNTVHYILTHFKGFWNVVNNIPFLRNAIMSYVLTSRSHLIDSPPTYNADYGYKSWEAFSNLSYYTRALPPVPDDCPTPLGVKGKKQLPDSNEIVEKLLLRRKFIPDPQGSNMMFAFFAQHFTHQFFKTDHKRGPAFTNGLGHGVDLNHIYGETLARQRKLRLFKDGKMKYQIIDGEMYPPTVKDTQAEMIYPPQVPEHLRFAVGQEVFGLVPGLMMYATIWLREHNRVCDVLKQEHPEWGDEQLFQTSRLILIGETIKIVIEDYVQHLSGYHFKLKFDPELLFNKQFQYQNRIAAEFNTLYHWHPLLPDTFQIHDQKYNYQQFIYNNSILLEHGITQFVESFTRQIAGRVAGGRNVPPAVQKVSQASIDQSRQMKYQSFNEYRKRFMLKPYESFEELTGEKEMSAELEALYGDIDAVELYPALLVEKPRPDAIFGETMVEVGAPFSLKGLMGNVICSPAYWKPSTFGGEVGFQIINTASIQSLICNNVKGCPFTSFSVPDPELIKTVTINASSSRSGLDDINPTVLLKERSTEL

[10] = molecular target: T5, Prostaglandin G/H synthase 1; experiment: Inhibition of COX1 (unknown origin) at 10 uM
[11] = molecular target: T7, Prostaglandin G/H synthase 2 (Homo sapiens) (UniProt P35354); experiment: Inhibition of COX2 (unknown origin) at 10 uM
T7 sequence (whole entry): T6 sequence (P35354 whole entry)

Compound | IC50 [1] [µM] | IC50 [2] [µM] | IC50 [3] [µM] | IC50 [5] [µM] | other results
CC1CCCCN1S(=O)(=O)c1cccc(N2CCCC2=O)c1 (stereo unspecified) | > 30 |  |  |  | 
CC1CCCN(S(=O)(=O)c2ccc(N3CCCC3=O)cc2)C1 (stereo unspecified) | 0.084 | > 30 | > 30 | > 30 | IC50 [4]: 0.015 µM
Cc1cc(S(=O)(=O)N2CCCCC2C)c(C)cc1N1CCCC1=O (stereo unspecified) | > 30 |  |  |  | 
O=C1CCCN1c1ccc(S(=O)(=O)N2CCc3ccccc3C2)cc1 | 0.052 |  |  |  | 
O=C1CCCN1c1ccc(S(=O)(=O)N2CCC[C@H](O)C2)cc1 | 8.98 | > 30 | > 30 | > 30 | 
CC1CCCCN1S(=O)(=O)c1ccc(N2CCCS2(=O)=O)cc1 (stereo unspecified) | 5.22 | > 30 | > 30 | > 30 | 
CC1CCCCN1Cc1ccc(N2CCCC2=O)cc1 (stereo unspecified) | > 30 |  |  |  | 
Cc1cccc(Nc2ccccc2C(=O)O)c1C [MEFENAMIC ACID] |  |  |  |  | IC50 [6]: > 100 µM; IC50 [7]: 25 µM; IC50 [8]: 3.91 µM; IC50 [9]: 2.9 µM
C[C@@H]1CN(S(=O)(=O)c2ccc(N3CCCC3=O)cc2)C[C@H](C)N1 | 21.2 |  |  |  | 
C[C@@H]1CCCCN1S(=O)(=O)c1ccc(N2CCCC2=O)cc1 |  | > 30 | > 30 | > 30 | 
O=C1CCCN1c1ccc(S(=O)(=O)N2CCOCC2)cc1 | > 30 |  |  |  | 
O=C(O)c1ccccc1Nc1cccc(C(F)(F)F)c1 [FLUFENAMIC ACID] |  |  |  |  | IC50 [7]: 3 µM
Cc1ccc(Cl)c(Nc2ccccc2C(=O)O)c1Cl [MECLOFENAMIC ACID] |  |  |  |  | IC50 [7]: 0.22 µM; IC50 [9]: 0.7 µM
CC1CCCCN1S(=O)(=O)c1ccc(N2CCC2=O)cc1 (stereo unspecified) | 5.61 | > 30 | > 30 | > 30 | 
CC1CCCCN1S(=O)(=O)c1ccc(N2CCCC2=O)cc1 (racemic) |  | > 30 | > 30 | > 30 | inhibition [10]: inactive; inhibition [11]: inactive
CC1CCN(S(=O)(=O)c2ccc(N3CCCC3=O)cc2)CC1 | 0.2 | > 30 | > 30 | > 30 | 
CC1CCCCN1S(=O)(=O)c1ccc(N2C(=O)CCC2=O)cc1 (stereo unspecified) | > 30 |  |  |  | 
CC(C)C(=O)Nc1ccc(S(=O)(=O)N2CCCCC2C)cc1 (stereo unspecified) | 12.5 |  |  |  | 
C[C@H]1CCC[C@H](C)N1S(=O)(=O)c1ccc(N2CCCC2=O)cc1 | 0.056 | > 30 | > 30 | > 30 | IC50 [4]: 0.022 µM
CC1CCCCN1C(=O)c1ccc(N2CCCC2=O)cc1 (stereo unspecified) | > 30 |  |  |  | 
CC1CCCCN1S(=O)(=O)c1ccc(NC(=O)C(C)(C)C)cc1 (stereo unspecified) | 5.94 | > 30 | > 30 | > 30 | 
CC1CCCCN1S(=O)(=O)c1ccc(N2CCCC2=O)cn1 (stereo unspecified) | 2.77 | > 30 | > 30 | > 30 | 
CC1CCCCN1S(=O)(=O)c1ccccc1N1CCCC1=O (stereo unspecified) | > 30 |  |  |  | 
Cc1cc(S(=O)(=O)N2CCCCC2C)ccc1N1CCCC1=O (stereo unspecified) | 10.2 |  |  |  | 
O=C1CCCN1c1ccc(S(=O)(=O)N2CCCC2)cc1 | > 30 |  |  |  | 
O=C1CCCN1c1ccc(S(=O)(=O)N2CCC[C@@H](O)C2)cc1 | 1.55 | > 30 | > 30 | > 30 | 
O=C1CCCN1c1ccc(S(=O)(=O)N2CCCCC2)cc1 | 0.14 | > 30 | > 30 | > 30 | inhibition [10]: inactive; inhibition [11]: inactive
CC1CCCCN1S(=O)(=O)c1ccc(N2CCCCC2=O)cc1 (stereo unspecified) | 3.77 | > 30 | > 30 | > 30 | 
CC1CCCCN1S(=O)(=O)c1ccc(N2C(=O)c3ccccc3C2=O)cc1 (stereo unspecified) | > 30 |  |  |  | 
